Measurements as given in paper PMC11569172 (Scientific Reports, 2024).

What was measured:
[1] = molecular target: cGAS (Homo sapiens, UniProt Q8N884); assay: SPR; assay type: binding
[2] = molecular target: STING (Homo sapiens, UniProt Q86WV6); assay: SPR; assay type: binding
Sequence of STING (Q86WV6 whole entry): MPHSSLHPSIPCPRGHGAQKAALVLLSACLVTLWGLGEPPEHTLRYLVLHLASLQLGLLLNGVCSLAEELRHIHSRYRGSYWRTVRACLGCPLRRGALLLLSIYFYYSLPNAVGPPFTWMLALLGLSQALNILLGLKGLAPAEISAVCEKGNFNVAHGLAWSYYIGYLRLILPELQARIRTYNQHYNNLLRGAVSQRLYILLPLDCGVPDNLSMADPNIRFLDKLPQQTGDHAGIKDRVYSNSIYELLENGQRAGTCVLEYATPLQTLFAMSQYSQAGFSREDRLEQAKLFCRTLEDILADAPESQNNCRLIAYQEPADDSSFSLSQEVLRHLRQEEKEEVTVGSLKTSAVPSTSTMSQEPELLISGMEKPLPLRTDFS

Sequence of cGAS (Q8N884 whole entry): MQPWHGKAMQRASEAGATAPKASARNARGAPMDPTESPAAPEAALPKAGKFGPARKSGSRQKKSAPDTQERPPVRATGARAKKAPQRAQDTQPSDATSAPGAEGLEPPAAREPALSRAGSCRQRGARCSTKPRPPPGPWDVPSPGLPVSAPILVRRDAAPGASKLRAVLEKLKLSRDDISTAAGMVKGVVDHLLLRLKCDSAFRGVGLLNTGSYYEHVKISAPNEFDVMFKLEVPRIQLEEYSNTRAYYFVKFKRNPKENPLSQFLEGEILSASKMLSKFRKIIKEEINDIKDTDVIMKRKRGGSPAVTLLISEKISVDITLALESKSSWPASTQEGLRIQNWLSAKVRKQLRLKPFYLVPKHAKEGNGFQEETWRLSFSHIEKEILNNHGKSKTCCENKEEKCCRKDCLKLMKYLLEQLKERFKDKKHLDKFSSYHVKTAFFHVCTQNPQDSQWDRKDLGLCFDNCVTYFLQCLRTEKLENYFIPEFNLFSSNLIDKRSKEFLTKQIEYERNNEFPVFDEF

SMILES: COc1cc(O)c2c(=O)c(O)c(-c3ccc(O)cc3)oc2c1 [RH, rhamnocitrin]
- Kd [1]: 2.6 µM
- Kd [2]: 6.75 µM
